# Measurements taken from ChEMBL document CHEMBL1201862, “PubChem BioAssay data set” (2004).
#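 1) Cells in 96-well plates. 2) Compound, 48 h, 5 concentrations. 3) Linear interpolation between surrounding doses. 4) Unreached endpoint = highest concentration. GI50 marks 50% less growth.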 Calls of active or inactive are those of the source. Rule as the data show it: active = GI50 up to about 1.1 µM and inactive = higher.
# Key:
# Assay in all cases: inhibition of tumour cell growth, NCI panel, 48 h
# UO-31 = test system: UO-31
# DU-145 = test system: DU-145
# Hs-578T = test system: Hs-578T
# UACC-257 = test system: UACC-257
# SN12C = test system: SN12C
# SNB-75 = test system: SNB-75
# OVCAR-4 = test system: OVCAR-4
# LOX IMVI = test system: LOX IMVI
# A549 = test system: A549
# SF-268 = test system: SF-268
# SF-539 = test system: SF-539
# IGROV-1 = test system: IGROV-1
# NCI-H460 = test system: NCI-H460
# SR = test system: SR
# COLO 205 = test system: COLO 205
# CAKI-1 = test system: CAKI-1
# HCT-116 = test system: HCT-116
# NCI/ADR-RES = test system: NCI/ADR-RES
# Malme-3M = test system: Malme-3M
# SK-MEL-5 = test system: SK-MEL-5
# HL-60 = test system: HL-60
# K562 = test system: K562
# SF-295 = test system: SF-295
# HCC 2998 = test system: HCC 2998
# MDA-MB-231 = test system: MDA-MB-231
# OVCAR-5 = test system: OVCAR-5
# CCRF-CEM = test system: CCRF-CEM
# HT-29 = test system: HT-29
# 786-0 = test system: 786-0
# UACC-62 = test system: UACC-62
# SW-620 = test system: SW-620
# A498 = test system: A498
# BT-549 = test system: BT-549
# MDA-N = test system: MDA-N
# NCI-H226 = test system: NCI-H226
# HOP-62 = test system: HOP-62
# SK-MEL-28 = test system: SK-MEL-28
# MOLT-4 = test system: MOLT-4
# MCF7 = test system: MCF7
# ACHN = test system: ACHN
# SK-OV-3 = test system: SK-OV-3
# KM12 = test system: KM12
# U-251 = test system: U-251
# EKVX = test system: EKVX
# TK-10 = test system: TK-10
# OVCAR-3 = test system: OVCAR-3
# M14 = test system: M14
# NCI-H23 = test system: NCI-H23
# HOP-92 = test system: HOP-92
# RPMI-8226 = test system: RPMI-8226
# SNB-19 = test system: SNB-19
# PC-3 = test system: PC-3
# T47D = test system: T47D
# RXF 393 = test system: RXF 393
# MDA-MB-435 = test system: MDA-MB-435
# NCI-H522 = test system: NCI-H522
# HCT-15 = test system: HCT-15
# OVCAR-8 = test system: OVCAR-8
# SK-MEL-2 = test system: SK-MEL-2
smiles,measurement,setting,value
Cc1ccc(/N=N/c2ccc(O)c(CN(C)C)c2)cc1,GI50,UO-31,16 µM (inactive)
same,GI50,DU-145,17.8 µM (inactive)
same,GI50,Hs-578T,18.5 µM (inactive)
same,GI50,UACC-257,17.8 µM (inactive)
same,GI50,SN12C,35.8 µM (inactive)
same,GI50,SNB-75,21.6 µM (inactive)
same,GI50,OVCAR-4,22.6 µM (inactive)
same,GI50,LOX IMVI,14 µM (inactive)
same,GI50,A549,20.3 µM (inactive)
same,GI50,SF-268,20.2 µM (inactive)
same,GI50,SF-539,17.7 µM (inactive)
same,GI50,IGROV-1,15.1 µM (inactive)
same,GI50,NCI-H460,16.5 µM (inactive)
same,GI50,SR,24.8 µM (inactive)
same,GI50,COLO 205,17.7 µM (inactive)
same,GI50,CAKI-1,21.5 µM (inactive)
same,GI50,HCT-116,22.5 µM (inactive)
same,GI50,NCI/ADR-RES,22.6 µM (inactive)
same,GI50,Malme-3M,16.7 µM (inactive)
same,GI50,SK-MEL-5,14.5 µM (inactive)
same,GI50,HL-60,18.1 µM (inactive)
same,GI50,K562,20 µM (inactive)
same,GI50,SF-295,18.1 µM (inactive)
same,GI50,HCC 2998,15.5 µM (inactive)
same,GI50,MDA-MB-231,20.6 µM (inactive)
same,GI50,OVCAR-5,14.4 µM (inactive)
same,GI50,CCRF-CEM,22.8 µM (inactive)
same,GI50,HT-29,17.2 µM (inactive)
same,GI50,786-0,22.3 µM (inactive)
same,GI50,UACC-62,20.3 µM (inactive)
same,GI50,SW-620,20.7 µM (inactive)
same,GI50,A498,19.1 µM (inactive)
same,GI50,BT-549,23.1 µM (inactive)
same,GI50,MDA-N,16.2 µM (inactive)
same,GI50,NCI-H226,20.9 µM (inactive)
same,GI50,HOP-62,12.6 µM (inactive)
same,GI50,SK-MEL-28,20 µM (inactive)
same,GI50,MOLT-4,19.2 µM (inactive)
same,GI50,MCF7,24.2 µM (inactive)
same,GI50,ACHN,17.3 µM (inactive)
same,GI50,SK-OV-3,32.7 µM (inactive)
same,GI50,KM12,15.8 µM (inactive)
same,GI50,U-251,32.1 µM (inactive)
same,GI50,EKVX,22.6 µM (inactive)
same,GI50,TK-10,21.7 µM (inactive)
same,GI50,OVCAR-3,15.7 µM (inactive)
same,GI50,M14,21.9 µM (inactive)
same,GI50,NCI-H23,36.1 µM (inactive)
same,GI50,HOP-92,12.6 µM (inactive)
same,GI50,RPMI-8226,17.8 µM (inactive)
same,GI50,SNB-19,36.6 µM (inactive)
same,GI50,PC-3,19.4 µM (inactive)
same,GI50,T47D,13.7 µM (inactive)
same,GI50,RXF 393,4.66 µM (inactive)
same,GI50,MDA-MB-435,17.3 µM (inactive)
same,GI50,NCI-H522,16.7 µM (inactive)
same,GI50,HCT-15,20.6 µM
same,GI50,OVCAR-8,21.4 µM (inactive)
same,GI50,SK-MEL-2,15.2 µM (inactive)
